In BindingDB's records for patent US117808 (Pfizer, 2023):

Molecular target: Protein kinase C beta type Isoform 2 (Homo sapiens, UniProt P05771)
Test: Protein Kinase C beta 2 (PKCpII) Assay
Description: Protein Kinase C beta 2 (PKCpII) catalyzes the production of ADP from ATP that accompanies the phosphoryl transfer to the PKC Pseudosubstrate peptide (A→S, RFARKGSLRQKNV). This transfer is coupled to the oxidation of β-NADH through the activities of Pyruvate Kinase (PK) and Lactate Dehydrogenase (LDH). β-NADH conversion to NAD+ is monitored by the decrease in absorbance at 340 nm (e=6.22 cm−1 mM−1) using a Molecular Devices SPECTRA max PLUS spectrophotometer.A typical assay was carried out on a 96-well, clear microtiter plate in a Molecular Devices spectrophotometer for 20 minutes at 30° C. in 0.1 mL of assay buffer containing 50 mM HEPES, pH 7.4, 5 nM PKC, 23 units of pyruvate kinase, 33 units of lactate dehydrogenase, 0.15 mM peptide, 0.1 mM ATP, 1 mM DTT, 4 mM PEP, 8 mM MgCl2, 0.3 mM NADH, […]), 10 mg/mL PS, 50 ng/mL PMA, 7.5% DMSO and from about 10,000 nM to 0.169 nM compound inhibitor. Stock solutions of 3-sn-phosphatidyl-L-serine (PS) and phorbol-12-myristate-13-acetate (PMA) were sonicated for 30 seconds just prior to addition to assay buffer and assays were initiated by the addition of 100 μM ATP.

Sequence of Protein kinase C beta type Isoform 2 (P05771 as listed by the source): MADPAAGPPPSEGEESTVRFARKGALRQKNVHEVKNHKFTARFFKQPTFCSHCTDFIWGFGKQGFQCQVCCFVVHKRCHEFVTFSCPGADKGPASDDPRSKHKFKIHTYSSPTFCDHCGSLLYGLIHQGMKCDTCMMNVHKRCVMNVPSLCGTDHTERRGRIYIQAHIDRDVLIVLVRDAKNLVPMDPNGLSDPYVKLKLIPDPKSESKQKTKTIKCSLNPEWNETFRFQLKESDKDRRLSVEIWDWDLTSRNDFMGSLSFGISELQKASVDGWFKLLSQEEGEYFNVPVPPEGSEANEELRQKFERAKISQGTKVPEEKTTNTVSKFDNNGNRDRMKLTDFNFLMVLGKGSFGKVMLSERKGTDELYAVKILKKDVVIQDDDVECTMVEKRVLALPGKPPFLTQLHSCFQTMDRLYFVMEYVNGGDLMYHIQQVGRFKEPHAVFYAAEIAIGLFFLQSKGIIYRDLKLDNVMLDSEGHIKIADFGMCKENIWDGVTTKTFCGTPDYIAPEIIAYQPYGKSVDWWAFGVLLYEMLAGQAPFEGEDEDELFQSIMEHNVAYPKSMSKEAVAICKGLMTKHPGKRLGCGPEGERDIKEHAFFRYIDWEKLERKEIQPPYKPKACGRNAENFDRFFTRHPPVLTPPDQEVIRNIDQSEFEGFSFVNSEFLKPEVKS

Structure (SMILES): Cc1ncc(F)c(Nc2n[nH]c3c2CN(C(=O)N2C[C@@H](C)N(C)C[C@@H]2C)C3(C)C)n1 [US11220518, Ex. No. H2]
- Ki: 2.63 nM
